# Experimental data from article PMC5349880, “P-glycoprotein-mediated chemoresistance is reversed by carbonic anhydrase XII inhibitors” (Oncotarget, 2016).
# What was measured:
# [1] = tested on: U2OS cells; assay: Cell viability (neutral red); format: cell-based, human; conditions: doxorubicin alone 72 h, IC50 ratio vs doxorubicin + tariquidar 25 nM
# [2] = tested on: SaOS cells; assay: Cell viability (neutral red); format: cell-based, human; conditions: doxorubicin alone 72 h, IC50 ratio vs doxorubicin + tariquidar 25 nM
# [3] = tested on: MDA-MB-231 cells; assay: Cell viability (neutral red); format: cell-based, human; conditions: MDA-MB-231; doxorubicin alone 72 h; IC50 ratio vs doxorubicin + tariquidar 25 nM
# [4] = tested on: SaOS/DX cells; assay: Cell viability (neutral red); format: cell-based, human; conditions: SaOS/DX; doxorubicin alone 72 h; IC50 ratio vs doxorubicin + tariquidar 25 nM
# [5] = Hematochemical parameters of tumor-bearing animals; conditions: doxorubicin 5 mg/kg i.v. alone
# [6] = tested on: U2OS/DX cells; assay: Cell viability (neutral red); format: cell-based, human; conditions: U2OS/DX; doxorubicin alone 72 h; IC50 ratio vs doxorubicin + tariquidar 25 nM
# [7] = tested on: A549 cells; assay: Cell viability (neutral red); format: cell-based, human; conditions: A549; doxorubicin alone 72 h; IC50 ratio vs doxorubicin + tariquidar 25 nM
# [8] = tested on: T74D cells; assay: Cell viability (neutral red); format: cell-based, human; conditions: T74D; doxorubicin alone 72 h; IC50 ratio vs doxorubicin + tariquidar 25 nM
# [9] = tested on: HT29/DX cells; assay: Cell viability (neutral red); format: cell-based, human; conditions: HT29/DX; doxorubicin alone 72 h; IC50 ratio vs doxorubicin + tariquidar 25 nM
# [10] = tested on: A549/DX cells; assay: Cell viability (neutral red); format: cell-based, human; conditions: A549/DX; doxorubicin alone 72 h; IC50 ratio vs doxorubicin + tariquidar 25 nM
# [11] = tested on: HT29 cells; assay: Cell viability (neutral red); format: cell-based, human; conditions: doxorubicin alone 72 h, IC50 ratio vs doxorubicin + tariquidar 25 nM
# [12] = tested on: SKBR3 cells; assay: Cell viability (neutral red); format: cell-based, human; conditions: doxorubicin alone 72 h, IC50 ratio vs doxorubicin + tariquidar 25 nM
# [13] = tested on: MCF7 cells; assay: Cell viability (neutral red); format: cell-based, human; conditions: doxorubicin alone 72 h, IC50 ratio vs doxorubicin + tariquidar 25 nM
# [14] = tested on: TUBO cells; assay: Cell viability (neutral red); format: cell-based, murine; conditions: TUBO; doxorubicin alone 72 h; IC50 ratio vs doxorubicin + tariquidar 25 nM
# [15] = tested on: JC cells; assay: Cell viability (neutral red); format: cell-based, murine; conditions: JC; doxorubicin alone 72 h; IC50 ratio vs doxorubicin + tariquidar 25 nM
smiles,measurement,setting,value
"COc1cccc2c1C(=O)c1c(O)c3c(c(O)c1C2=O)C[C@@](O)(C(=O)CO)C[C@@H]3O[C@H]1C[C@H](N)[C@H](O)[C@H](C)O1 [dox, doxorubicin, reference compound]",Rf dox,[1],1.05
same,Rf dox,[2],1.43
same,Rf dox,[3],4.55
same,Rf dox,[4],14.97
same,ALT,[5],37 ± 16 U/l
same,AST,[5],288 ± 72 U/l
same,CPK,[5],673 ± 172 U/l
same,Creatinine,[5],0.029 ± 0.017 mg/L
same,LDH,[5],6272 ± 812 U/l
same,Rf dox,[6],15.44
same,Rf dox,[7],1.31
same,Rf dox,[8],0.98
same,Rf dox,[9],4.26
same,Rf dox,[10],4.45
same,Rf dox,[11],1.39
same,Rf dox,[12],2.19
same,Rf dox,[13],1.32
same,Rf dox,[14],4.23
same,Rf dox,[15],7.61
